Measured values from a melting point compilation (Tetko et al.).

Row | melting point [°C] | SMILES
1 | 197 to 199 | CCOC(=O)c1c(C)oc2nc(CCl)[nH]c(=O)c12
2 | < 17 | CC1(CCc2ccccc2)NC(=O)N(N)C1=O (stereo not drawn)
3 | 269 to 271 | O=C(c1c[nH]c(=O)[nH]1)N1CCNCC1
4 | 169 to 171 | CCOC(=O)NC(=S)Nc1nccs1
5 | 115 to 117 | COC(=O)c1nonc1N
6 | 108 to 110 | CC(C)CCOc1ccc(C(=O)NN)cc1
7 | 109 to 111 | COc1ccc(-c2noc(CCCC(=O)O)n2)cc1
8 | 124 to 126 | Fc1ccc(Nc2nccs2)cc1Cl
9 | 60 to 62 | CC(C)(C)Oc1ccc(N)cc1
10 | 39 to 43 | N#Cc1ccc(CO)cc1
11 | 149 to 151 | Cc1cc2ncc(C=O)cn2n1
12 | 103 to 105 | Nc1ncccc1-c1ccccc1
13 | 216 to 218 | Nc1cc(C(=O)O)ccc1NCCCN1CCOCC1
14 | 148 to 152 | CC(C)(C)NC(=O)CN1CCN(CC(N)=S)CC1
15 | 77 to 79 | Cc1cc(Br)ccc1N1CCCS1(=O)=O
16 | 175 to 177 | O=C(O)Cc1csc(-c2ccc3c(c2)OCO3)n1
17 | 106 to 108 | CC(=O)c1ccc(OCc2nccn2C)cc1
18 | 45 to 47 | COc1cccc2cc(C=O)oc12
19 | 121 to 123 | O=C(O)C1C2CC3CC(C2)CC1C3 (stereo not drawn)

Row | melting point [°C] | SMILES
20 | 123 to 125 | CC(C)(C(=O)O)c1ccc(Br)cc1
21 | 195 to 197 | CCc1ccc(N(C(C)=O)c2nc(CCl)cs2)cc1
22 | 94 to 96 | CCc1c(-c2ccc(Br)cc2)n[nH]c1N
23 | 197 to 199 | Cn1ccnc1-c1noc(N)n1
24 | 249 to 251 | Cc1oncc1C(=O)Nc1ccc(O)c(C(=O)O)c1
25 | 152 to 154 | CC(C)(C)c1c(C(=O)O)nnn1-c1ccc(Cl)cc1F
26 | 176 to 178 | CC1(C)NC(=O)N(CCC(=O)NN)C1=O
27 | 119 to 121 | O=[N+]([O-])c1cc(S(=O)(=O)NCCN2CCOCC2)ccc1Cl
28 | 78 to 80 | CCC(CO)N1CCNCC1 (stereo not drawn)
29 | 148 to 150 | CC(C)(C)CNC(N)=O
30 | 117 to 119 | COc1cc(/C(C)=N\O)ccc1OCc1ccccc1
31 | 201 to 203 | Cc1ccc(NCCC(=O)O)nc1
32 | 249 to 251 | Cc1cc(Br)cc2c(=O)cc[nH]c12
33 | 70 to 72 | CN(C)N=Cc1cnn(C)c1
34 | 182 to 184 | CC(=O)c1cc(F)ccc1-n1ccnc1
35 | 50 to 52 | CC(C)Oc1ccc(C#N)cc1
36 | 69 to 71 | Brc1ccc(-n2cccn2)cc1
37 | 72 to 74 | COc1ccc2c(c1)C=C(C#N)CO2
38 | 213 to 215 | Clc1ccc2nncn2n1

Row | melting point [°C] | SMILES
39 | 148 to 150 | Sc1nnnn1-c1cccc(Cl)c1
40 | 182 to 184 | Cc1nn(C)c(C)c1C(=O)C(N)=O
41 | 296 to 298 | Cn1nc(Br)c2c(=O)[nH]cnc21
42 | 189 to 191 | Cc1nnc(-c2cccc(N)c2)n1C
43 | 44 to 46 | CCc1nc(COc2ccc(C(=O)OC)cc2)no1
44 | 153 to 155 | O=C(O)Cn1cc([N+](=O)[O-])cn1
45 | 63 to 65 | Cc1cc(N)nn1-c1ccccc1Cl
46 | 212 to 214 | O=C(O)c1cc2c(s1)-c1ccccc1CC2
47 | 257 to 259 | O=C(O)c1ccnc(C2CC2)c1
48 | 222 to 224 | CCOc1ccc(-c2cc(C(=O)O)c3c(C)noc3n2)cc1
49 | 173 to 175 | CS(=O)(=O)c1ccc(C(=O)O)o1
50 | 61 to 63 | COc1ccc(C(=O)c2ccccc2Cl)c(OC)c1
51 | 66 to 68 | CCCCCNC1=NCC(c2ccccc2)S1 (stereo not drawn)
52 | 212 to 214 | O=C(O)c1csc(-c2ccc(Cl)c(Cl)c2)n1
53 | 179 to 181 | CC(O)C(NS(=O)(=O)c1ccc(Cl)cc1)C(=O)O (stereo not drawn)
54 | 79 to 81 | N#Cc1cccnc1NCCO
55 | 179 to 181 | N=C(N)Nc1nc2ccccc2o1
56 | 170 to 172 | NS(=O)(=O)c1cc(F)ccc1Br

Row | SMILES | melting point [°C]
57 | CNC(=O)c1cccc(CCN)c1 | 110 to 112
58 | COC(=O)c1sccc1N=[N+]=[N-] | 69 to 71
